Results taken from PMC11407620, “Repurposing auranofin and meclofenamic acid as energy-metabolism inhibitors and anti-cancer drugs” (PLOS ONE, 2024).
Where two headings read alike, the source gives them in different places.

Experiments:
Cervix HeLa cells = test: Cell proliferation, 24 h drug exposure; type: cell-based, human; details: for IC50: Cervix HeLa, 24 h, read-out: IC50 for proliferation cell rate; for effect on proliferation after shorter exposure: HeLa cells, 12 h exposure; for TI ratio (3T3/ cancer cells): IC50 3T3 / IC50 HeLa; for TI ratio (H9C2/cancer cells): IC50 H9C2 / IC50 HeLa
Method: (§1) All metastatic (breast MDA-MB231, MDA-MB468, cervix HeLa, prostate PC3, colorectal HCT116, COLO205, glioblastoma U373), low-metastatic (breast MCF-7) cancer and non-cancer (fibroblast 3T3, cardiomyocytes H9C2) cell lines (American Type Culture Collection, Rockville, MD, USA) used in this study were cultured in Petri dishes in 20 mL of Dulbecco’s Modified Eagle’s Medium (DMEM, Sigma, MO, USA) supplemented with 10% fetal bovine serum (Biowest, Mexico) and 10,000 U penicillin/streptomycin (Sigma-Aldrich, MO, USA). […] For growth and maintenance, cells were incubated in 5% CO2/95% air at 37°C and kept until 80–90% of confluence was reached. Then, cells were harvested, washed by centrifugation and resuspended in Krebs-Ringer buffer (KR, 125 mM NaCl, 5 mM KCl, 25 mM Hepes, 1 mM MgCl2, 1 mM KH2PO4, 1.4 mM CaCl2, pH 7.4) for further use. For experimentation, cancer cells (3–5 x 10^6 cells) were cultured in DMEM (with 25 mM glucose) for 24 h in the absence of drugs. Afterwards, old-medium was replaced with fresh DMEM medium (with 25 mM glucose) in the absence (control, non-treated cells) or in the presence of logarithmic concentrations of Aur and MA for 24 h more, under the same culture conditions described above. Viability of cultured cells was determined by the trypan blue exclusion assay. The protein concentration was determined by the Lowry method.
For cell proliferation in the presence of drugs, cancer cells (20 x 10^3 cells/well) were grown in 96-well plates containing DMEM (Sigma-Aldrich) plus 10% bovine fetal serum for 24 h. […] The effect of these drugs on cell proliferation was determined in 96-well plates by the MTT (3-[4,5-dimethyl-thiazol-2-yl]-2,5-diphenyltetrazolium bromide) assay. The viability of cancer cells was > 95% after treatment with drugs.

HeLa cells [1] = test: ROS production and total content (DHE); type: cell-based, human; details: Aur 1.7 μM, 24 h
Method: Fig 3 Radical oxygen species in Aur-treated cancer cells. (A) ROS production and (B) ROS total content in DHE loaded-metastatic cancer cells. The 100% fluorescence corresponds to 1.9 ± 0.26 (n = 3); 1.2 ± 0.09 (n = 3); and 0.64 (n = 2) fluorescence arbitrary units for HeLa, MDA-MB-231 and U373 cells, respectively. The Aur concentration added was 1.7, 0.8 and 0.6 μM for HeLa, MDA-MB-231 and U373 cells, respectively. The contents of ROS shown were determined at the 120 min end-point, after adding 25 μM DHE. *p < 0.05 vs. Control (Non- treated cells).

MDA-MB-231 cells = test: OxPhos flux (oligomycin-sensitive respiration) in intact cells; type: cell-based, human; details: 24 h
Method: (§2) For oxidative phosphorylation (OxPhos) flux, cells (2–5 mg protein/mL) were incubated at 37°C in air saturated KR medium plus 5 mM glucose. To distinguish the oxygen consumption associated to OxPhos, the cells were incubated with 5 μM oligomycin (Sigma-Aldrich, MO, USA), a potent, specific, and permeable inhibitor of the mitochondrial ATP synthase. The net OxPhos rate was determined by using a Clark type electrode, as previously described and by using a high-resolution respirometer (Oroboros Instruments, Innsbruck, Austria) at 37°C. The contribution of OxPhos and glycolysis to the cellular ATP supply was determined, respectively, from the net OxPhos rate (oligomycin-sensitive respiration) multiplied by the ATP/O or P»/O2 ratio that corresponds to 2.5 or 5, and from the rate of lactate production, assuming a stoichiometry of 1 mol of ATP produced per 1 mol of lactate produced.

HeLa cells [2] = test: as above; type: cell-based, human; details: 24 h
Method: as §2

Breast MCF-7 cells = test: Cell proliferation, 24 h drug exposure; type: cell-based, human; details: for IC50: Breast MCF-7 (low metastatic), 24 h, read-out: IC50 for proliferation cell rate; for TI ratio (3T3/ cancer cells): IC50 3T3 / IC50 MCF-7; for TI ratio (H9C2/cancer cells): IC50 H9C2 / IC50 MCF-7
Method: as §1
(§3) For cell proliferation in the presence of drugs, cancer cells (20 x 10^3 cells/well) were grown in 96-well plates containing DMEM (Sigma-Aldrich) plus 10% bovine fetal serum for 24 h. Afterwards, Aur or MA (0.01, 0.1, 10 and 100 μM) were added to the cell cultures and incubated for additional 24 h. The effect of these drugs on cell proliferation was determined in 96-well plates by the MTT (3-[4,5-dimethyl-thiazol-2-yl]-2,5-diphenyltetrazolium bromide) assay. The viability of cancer cells was > 95% after treatment with drugs.

Breast MDA-MB-231 cells = test: Cell proliferation, 24 h drug exposure; type: cell-based, human; details: for IC50: Breast MDA-MB-231, 24 h, read-out: IC50 for proliferation cell rate; for TI ratio (3T3/ cancer cells): IC50 3T3 / IC50 MDA-MB-231; for TI ratio (H9C2/cancer cells): IC50 H9C2 / IC50 MDA-MB-231
Method: as §1, §3

Prostate PC3 cells = test: Cell proliferation, 24 h drug exposure; type: cell-based, human; details: for TI ratio (3T3/ cancer cells): IC50 3T3 / IC50 PC3; for TI ratio (H9C2/cancer cells): IC50 H9C2 / IC50 PC3; for IC50: Prostate PC3, 24 h, read-out: IC50 for proliferation cell rate
Method: as §1, §3

Colorectal HCT116 cells = test: Cell proliferation, 24 h drug exposure; type: cell-based, human; details: for IC50: Colorectal HCT116, 24 h, read-out: IC50 for proliferation cell rate; for TI ratio (3T3/ cancer cells): IC50 3T3 / IC50 HCT-116; for TI ratio (H9C2/cancer cells): IC50 H9C2 / IC50 HCT-116
Method: as §1, §3

[3] = test system: H9C2 mouse cardiomyocytes; test: Cell proliferation, 24 h drug exposure (non cancer cells); type: cell-based; details: read-out: IC50 for proliferation cell rate
Method: as §1, §3

3T3 mouse fibroblasts = test: as above; type: cell-based; details: 3T3 mouse fibroblasts (non cancer), read-out: IC50 for proliferation cell rate
Method: as §1, §3

Structure (SMILES) | effect on proliferation after shorter exposure (Cervix HeLa cells) [%] | TI ratio (3T3/ cancer cells) (Cervix HeLa cells) | TI ratio (H9C2/cancer cells) (Cervix HeLa cells) | TI ratio (3T3/ cancer cells) (Breast MCF-7 cells) | TI ratio (H9C2/cancer cells) (Breast MCF-7 cells) | TI ratio (3T3/ cancer cells) (Breast MDA-MB-231 cells) | TI ratio (H9C2/cancer cells) (Breast MDA-MB-231 cells) | TI ratio (3T3/ cancer cells) (Prostate PC3 cells) | TI ratio (H9C2/cancer cells) (Prostate PC3 cells) | TI ratio (3T3/ cancer cells) (Colorectal HCT116 cells) | TI ratio (H9C2/cancer cells) (Colorectal HCT116 cells) | IC50 [3] [µM] | also measured
CC(=O)OC[C@H]1O[C@@H]([S-])[C@H](OC(C)=O)[C@@H](OC(C)=O)[C@@H]1OC(C)=O.CCP(CC)CC.[Au+] [Aur, [1-(thio-κS)-β-D-glucopyranose-2,3,4,6-tetraacetyl] (triethylphosphine)-gold] | < 15 | 25 | 46 | 8 | 15 | 52 | 97 | 6 | 12 | 14 | 26 | 78 ± 15 | IC50 (Cervix HeLa cells): 1.7 ± 0.4 µM; ROS production rate (HeLa cells [1]): did not bring about increments; total ROS levels after 2 h measurement (HeLa cells [1]): did not bring about increments; OxPhos flux (MDA-MB-231 cells; +Aur 0.8 μM): 2.5 ± 0.5 nmol O2 min^-1 mg protein^-1; OxPhos flux (HeLa cells [2]; +Aur 1.7 μM): 2.6 ± 0.5 nmol O2 min^-1 mg protein^-1; IC50 (Breast MCF-7 cells): 5 ± 0.6 µM; IC50 (Breast MDA-MB-231 cells): 0.8 ± 0.2 µM; IC50 (Prostate PC3 cells): 6.5 ± 3.5 µM; IC50 (Colorectal HCT116 cells): 3000 ± 1000 nM; IC50 (3T3 mouse fibroblasts): 42 ± 17 µM
Cc1ccc(Cl)c(Nc2ccccc2C(=O)O)c1Cl [MA, Meclofenamic acid] | < 15 | 17 | 17 | 1 | 1 | 2 | 2 | 17 | 17 | 1 | 1 | > 100 | IC50 (Cervix HeLa cells; Homo sapiens): 6 ± 3 µM; OxPhos flux (MDA-MB-231 cells; +MA 50 μM): 3.1 ± 2 nmol O2 min^-1 mg protein^-1; OxPhos flux (HeLa cells [2]; +MA 6 μM): 1.1 ± 0.3 nmol O2 min^-1 mg protein^-1; IC50 (Breast MCF-7 cells; Homo sapiens, MCF7): > 100 µM; IC50 (Breast MDA-MB-231 cells; Homo sapiens): 51 ± 5 µM; IC50 (Prostate PC3 cells; Homo sapiens, PC-3): 6 ± 3 µM; IC50 (Colorectal HCT116 cells; Homo sapiens, HCT-116): > 100000 nM; IC50 (3T3 mouse fibroblasts; Fibroblast): > 100 µM
